Measured values reported in PubChem BioAssay (NCI).
“And” between values parts separate entries of the source, which are not always exact repeats. Equal values may be shown once.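 Where inhibition never reached the appropriate level, the endpoint shown equals the highest concentration tested. Otherwise, values were interpolated linearly from a five-concentration, 48-hour dose response in 96-well plates. GI50 is the concentration that inhibits growth by half. TGI denotes the concentration required for complete inhibition of growth.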

Experiments:
Experiment in all cases: NCI anticancer screen, dose series, 48 h
MCF7 breast = test system: MCF7 breast
EKVX NSCLC = test system: EKVX NSCLC
HCT-15 colon = test system: HCT-15 colon
NCI-H522 lung = test system: NCI-H522 lung
HCT-116 colon = test system: HCT-116 colon
SK-MEL-28 melanoma = test system: SK-MEL-28 melanoma
SR leukemia = test system: SR leukemia
CAKI-1 renal = test system: CAKI-1 renal
ACHN renal = test system: ACHN renal
SNB-19 CNS = test system: SNB-19 CNS

SMILES	GI50 (MCF7 breast)	TGI (MCF7 breast)	GI50 (EKVX NSCLC)	TGI (EKVX NSCLC)	GI50 (HCT-15 colon)	TGI (HCT-15 colon)	GI50 (NCI-H522 lung)	TGI (NCI-H522 lung)	GI50 (HCT-116 colon)	TGI (HCT-116 colon)	GI50 (SK-MEL-28 melanoma)	TGI (SK-MEL-28 melanoma)	GI50 (SR leukemia)	TGI (SR leukemia)	GI50 (CAKI-1 renal)	TGI (CAKI-1 renal)	GI50 (ACHN renal)	TGI (ACHN renal)	GI50 (SNB-19 CNS)	TGI (SNB-19 CNS)
CC(C)c1c(C(=O)Nc2ccccc2)c(-c2ccccc2)c(-c2ccc(F)cc2)n1CC[C@@H](O)C[C@@H](O)CC(=O)O	27.5 µM	> 100 µM	49.4 µM	> 100 µM	7.69 µM	> 100 µM	3.73 µM	> 47.3 µM	10.1 µM	> 100 µM	18.2 µM	> 100 µM	4.35 µM	39 µM	11.9 µM	32.8 µM	6.67 µM	> 91.2 µM	10.5 µM	> 100 µM
O=C1Nc2ccc(I)cc2/C1=C/c1cc(Br)c(O)c(Br)c1	> 20.1 µM and 15.4 µM	> 82.2 µM	> 17.5 µM and 13.8 µM	> 84.1 µM	> 16 µM and 17.2 µM	> 65.8 µM	16.2 µM and 16.5 µM	> 25 µM and 42.3 µM	> 17.2 µM and 15.2 µM	> 25 µM and 32.8 µM	14.4 µM and 9.72 µM	> 72.2 µM	> 49.5 µM	98.9 µM	> 15.9 µM and 14.9 µM	> 25 µM and 72 µM	> 19.8 µM and 21.8 µM	> 85.8 µM	> 21.6 µM and 31.1 µM	> 94.3 µM
COc1cccc(-c2cc(-c3ccc(Nc4nc(Nc5ccc(Cl)cc5)nc(Nc5ccc(Cl)cc5)n4)cc3)nc(N)c2C#N)c1	–	5.84 µM	4.79 µM	16.3 µM	2.46 µM	> 24.2 µM	1.75 µM	4.62 µM	1.6 µM	3.53 µM	1.9 µM	3.98 µM	0.966 µM	4.22 µM	1.23 µM	5.09 µM	1.98 µM	4.5 µM	10.3 µM	> 39.3 µM
N=C(N)c1ccc(-c2ccc(-c3cccs3)s2)cc1F	0.5 µM	2.26 µM	–	–	0.629 µM	2.09 µM	1.94 µM	3.88 µM	0.922 µM	2.37 µM	1.45 µM	3.09 µM	0.341 µM	1.07 µM	1.37 µM	2.82 µM	1.45 µM	2.93 µM	1.77 µM	3.65 µM
FC(F)(F)c1ccc(-c2cnc(-c3nn[nH]n3)nc2NC2CCCCCC2)cc1	> 10 µM	> 10 µM	–	–	> 10 µM	> 10 µM	> 10 µM	> 10 µM	> 10 µM	> 10 µM	> 10 µM	> 10 µM	> 10 µM	> 10 µM	> 10 µM	> 10 µM	> 10 µM	> 10 µM	> 10 µM	> 10 µM
Cc1ccc(CNc2ccc(Cl)cc2NCc2ccc(C)c(O)c2)cc1O	6.18 µM	14.3 µM	8.14 µM	15.4 µM	5.66 µM	12.2 µM	6.59 µM	13.9 µM	7.78 µM	14.6 µM	7.21 µM	14.2 µM	5.75 µM	18.2 µM	7.39 µM	14 µM	6.19 µM	12.6 µM	7.69 µM	15.3 µM
C/C=C/C(C/C=C(\C)CO[Si](C)(C)C(C)(C)C)O[Si](C)(C)C(C)(C)C (stereo not drawn)	–	> 100 µM	–	> 100 µM	–	> 100 µM	–	> 100 µM	–	> 100 µM	–	> 100 µM	–	> 100 µM	–	> 100 µM	–	> 100 µM	–	> 100 µM
Nc1nc(N)c2nc(CNc3ccc(C(=O)NC(CCC(=O)O)C(=O)O)cc3)cnc2n1 (stereo not drawn)	0.0101 µM and < 0.01 µM	> 100 µM	4.69 µM	> 100 µM	0.0422 µM and < 0.01 µM	> 100 µM	0.0446 µM and 0.0815 µM	> 100 µM	< 0.01 µM	> 100 µM	0.941 µM	> 100 µM	< 0.01 µM	> 100 µM	< 0.01 µM	> 100 µM	< 0.01 µM	> 100 µM	0.0634 µM and 0.0656 µM	> 100 µM
CC(C)OC(=O)OCOP(=O)(OCOC(=O)OC(C)C)C1CCCN(O)C1=O (stereo not drawn)	1.52 µM	> 100 µM	3.03 µM	> 100 µM	1.85 µM	> 100 µM	0.768 µM	> 100 µM	0.711 µM	> 100 µM	0.739 µM	7.83 µM	1.25 µM	> 100 µM	3.55 µM	> 100 µM	0.888 µM	> 100 µM	1.21 µM	> 100 µM
COc1ccc(-c2cc(-c3ccc(Cl)cc3)c(C#N)c(=O)n2CCCCCC(=O)Nc2ccccc2N)cc1	3.25 µM	> 100 µM	3.44 µM	61.1 µM	2.78 µM	10.4 µM	4.43 µM	> 100 µM	3.8 µM	> 100 µM	3.88 µM	97.8 µM	2.02 µM	> 100 µM	2.04 µM	5.97 µM	4.18 µM	> 100 µM	23.1 µM	> 100 µM
CCN(CC)CCN1C(=O)c2cccc3cc(N)cc(c23)C1=O	–	> 100 µM	–	22.8 µM	–	> 100 µM	–	21.8 µM	–	38.5 µM	–	36.1 µM	–	39.8 µM	–	> 100 µM	–	> 100 µM	–	> 100 µM
CN(C)CCCn1c2c(c3ccc(N4CCNCC4)cc3c1=O)C(=O)c1ccccc1-2	0.296 µM	1.78 µM	1.18 µM	2.93 µM	0.728 µM	3.04 µM	0.96 µM	2.55 µM	–	–	1.53 µM	3.33 µM	0.307 µM	1.69 µM	1.05 µM	4.52 µM	0.392 µM	2.63 µM	0.541 µM	3.23 µM
CCCN1CCCC(c2ccc(Nc3nc(Nc4cc(F)ccc4C(N)=O)c4cc[nH]c4n3)c(OC)c2)C1 (stereo not drawn)	0.0137 µM	3.58 µM	0.862 µM	5.19 µM	0.437 µM	5.47 µM	2.85 µM	6.01 µM	0.21 µM	4.38 µM	3.49 µM	6.93 µM	0.0112 µM	7.99 µM	3.17 µM	8.63 µM	2.92 µM	6.23 µM	3.19 µM	6.45 µM
